Columns and labels:
[1] = tested on: MOLM-13 cells; test: Proliferation inhibition, MOLM-13; assay type: cell-based, human
[2] = tested on: MEIS1, MNDA and CD11b expression in MV4;11 and MOLM-13 cells; test: qRT-PCR of hematopoietic differentiation genes; assay type: cell-based, human; conditions: four days of treatment, in comparison to MI-503
Experimental: (§1) Total RNA was isolated using RNeasy-Plus Mini kit (Qiagen, Hilden, Germany). RNA (1 μg) was reverse transcribed using SuperScript III First-Strand Synthesis SuperMix (Life Technologies) and the generated cDNA was analyzed with commercial primers (Supplementary Materials Table S1) by qRT-PCR using TaqMan Fast Advanced Master Mix (Life Technologies). For the RNA-seq study, ZR-75-1, BT474, PANC-1, MiaPaCa-2, 22RV1, JMSU-1, DLD-1, SW1463, LoVo and G401 cells were treated with 5 µM BAY-155 or DMSO for 48 h prior to RNA extraction. After 48 h of 5 µM BAY-155 or DMSO treatment, MCF7, VCaP and LNCaP cells were stimulated for further 12 h with 0.1 nM of E2 (ß-Estradiol) or 1 nM R1881, respectively. MCF7, VCaP and LNCaP cells were cultured in starvation medium (containing 5 µM BAY-155 or DMSO) 6 h before stimulation. RNA was isolated using RNeasy-Plus Mini kit (Qiagen). The purified RNA was used for library preparation (Illumina, San Diego, CA, USA. TruSeq Stranded mRNA Kit) and the generated libraries were sequenced (Illumina, HiSeq2500 HTv4, SR, dual-indexing, 50 cycles).

[3] = tested on: T1, menin protein levels in VCaP cells; test: Western blot of menin protein level; assay type: cell-based, human; conditions: Western blot
T1 construct: endogenous in cells; host or cells: VCaP

[4] = tested on: JMSU-1 cells; test: RNA-seq differential gene expression, JMSU-1; assay type: cell-based; conditions: JMSU-1, 5 µM, 48 h
Experimental: as §1
(§2) RNA-seq reads were aligned to hg38 using STAR aligner. Protein-coding genes with more than 10 reads in more than three samples were used for the analysis (total samples N = 86; genes N = 13,003). […]

[5] = tested on: PANC-1 cells; test: RNA-seq differential gene expression, PANC-1; assay type: cell-based; conditions: PANC-1, 5 µM, 48 h
Experimental: as §1, §2

[6] = tested on: MCF7 cells; test: RNA-seq after E2 stimulation, MCF7; assay type: cell-based, human
Experimental: as §1
RNA-seq reads were aligned to hg38 using STAR aligner. Protein-coding genes with more than 10 reads in more than three samples were used for the analysis (total samples N = 86; genes N = 13,003). DESeq2 was used to find genes differentially expressed upon treatment by the menin inhibitor in each cell line compared to DMSO or hormonal treatment (for MCF-7, LNCaP and VCaP cell lines). […] GSEA analysis was run on the pre-ranked list based on logFC in prostate (VCaP and LNCaP) and breast (MCF7) cell lines. Data are available at GEO under accession number GSE136272.

[7] = tested on: MV4;11 xenograft; test: MV4;11 xenograft efficacy; assay type: in vivo, mice
Experimental: Tumor cells were injected subcutaneously into the flanks of 6- to 9-week old animals. Efficacy studies in xenograft models were performed at Bayer or EPO GmbH (Berlin-Buch, Germany) using NMRI nu/nu, SCID, BALB/c Nude female mice or SCID male mice (VCaP tumors). All animal studies were conducted in accordance with the animal welfare laws and were approved by the State Office for Health and Social Affairs Berlin (LAGeSo). Experiments were run under the animal license B3600a0007. Compound treatment started at a predefined tumor size or burden or at a predefined day after cell inoculation. […] Subcutaneous tumor volumes were determined by caliper measurement.

[8] = tested on: KYSE-150 xenograft; test: KYSE-150 xenograft efficacy; assay type: in vivo, mice; conditions: 120 mg/kg QD p.o.
Experimental: (§3) Tumor cells were injected subcutaneously into the flanks of 6- to 9-week old animals. Efficacy studies in xenograft models were performed at Bayer or EPO GmbH (Berlin-Buch, Germany) using NMRI nu/nu, SCID, BALB/c Nude female mice or SCID male mice (VCaP tumors). All animal studies were conducted in accordance with the animal welfare laws and were approved by the State Office for Health and Social Affairs Berlin (LAGeSo). Experiments were run under the animal license B3600a0007. Compound treatment started at a predefined tumor size or burden or at a predefined day after cell inoculation. BAY-155 was administered orally (p.o.) at various doses and regorafenib, tamoxifen and enzalutamide (resuspended in PEG400/H2O 6/4 or PEG400/EtOH 9/1) were used as control treatment for RKO, MCF7 and VCaP xenografts, respectively. Subcutaneous tumor volumes were determined by caliper measurement.

[9] = tested on: RKO xenograft; test: RKO xenograft efficacy; assay type: in vivo, mice
Experimental: as §3

[10] = tested on: MEIS1, MNDA and CD11b expression in MV4;11 and MOLM-13 xenografts; test: Ex vivo gene expression in MV4;11 and MOLM-13 xenografts; parameters: species or system mice; conditions: 17 (MV4;11) or 11 (MOLM-13) days of treatment
Experimental: as §1
(§4) Tumors were harvested, dissociated and total RNA was extracted using the TissueLyser (Qiagen, Hilden, Germany) together with RNeasy-Plus Mini kit according to the manufacturer protocol.

[11] = tested on: AR signaling pathway genes in VCaP tumor samples; test: Ex vivo gene expression in VCaP xenografts; parameters: species or system mice; conditions: 52 days of treatment
Experimental: as §1, §4

[12] = cited from earlier work
[13] = molecular target: CYP 3A4 (Homo sapiens, UniProt P08684); conditions: cited from earlier work
Sequence of CYP 3A4 (P08684 whole entry): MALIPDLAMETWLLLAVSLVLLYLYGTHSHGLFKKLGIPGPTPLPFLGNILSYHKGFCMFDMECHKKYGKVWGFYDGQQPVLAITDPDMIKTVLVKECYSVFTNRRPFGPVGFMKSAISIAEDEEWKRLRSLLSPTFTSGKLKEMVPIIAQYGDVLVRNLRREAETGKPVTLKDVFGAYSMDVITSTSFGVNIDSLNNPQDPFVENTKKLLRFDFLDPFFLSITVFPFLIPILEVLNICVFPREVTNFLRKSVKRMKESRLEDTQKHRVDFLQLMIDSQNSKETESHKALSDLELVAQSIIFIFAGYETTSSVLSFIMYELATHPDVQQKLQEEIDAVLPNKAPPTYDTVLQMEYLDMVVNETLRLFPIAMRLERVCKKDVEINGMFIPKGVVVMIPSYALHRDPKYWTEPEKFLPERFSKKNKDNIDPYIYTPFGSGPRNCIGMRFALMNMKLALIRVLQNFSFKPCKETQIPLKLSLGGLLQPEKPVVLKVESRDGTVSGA

[14] = molecular target: CYP 2D6 (Homo sapiens, UniProt P10635); conditions: cited from earlier work
Sequence of CYP 2D6 (P10635 whole entry): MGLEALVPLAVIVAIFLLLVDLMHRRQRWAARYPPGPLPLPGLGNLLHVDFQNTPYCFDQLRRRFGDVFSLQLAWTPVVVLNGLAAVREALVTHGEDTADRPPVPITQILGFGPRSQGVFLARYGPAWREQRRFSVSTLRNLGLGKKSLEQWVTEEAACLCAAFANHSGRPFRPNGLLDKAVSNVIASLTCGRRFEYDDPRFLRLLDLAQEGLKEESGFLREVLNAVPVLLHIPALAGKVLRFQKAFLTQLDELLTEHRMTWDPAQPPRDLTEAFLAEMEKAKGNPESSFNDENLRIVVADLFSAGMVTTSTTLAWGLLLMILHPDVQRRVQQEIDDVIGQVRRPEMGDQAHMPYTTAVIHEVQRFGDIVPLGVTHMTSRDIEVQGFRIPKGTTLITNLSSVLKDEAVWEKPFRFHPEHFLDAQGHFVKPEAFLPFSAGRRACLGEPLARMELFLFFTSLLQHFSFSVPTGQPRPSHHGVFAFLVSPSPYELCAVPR

[15] = molecular target: CYP 2C9 (Homo sapiens, UniProt P11712); conditions: cited from earlier work
Sequence of CYP 2C9 (P11712 whole entry): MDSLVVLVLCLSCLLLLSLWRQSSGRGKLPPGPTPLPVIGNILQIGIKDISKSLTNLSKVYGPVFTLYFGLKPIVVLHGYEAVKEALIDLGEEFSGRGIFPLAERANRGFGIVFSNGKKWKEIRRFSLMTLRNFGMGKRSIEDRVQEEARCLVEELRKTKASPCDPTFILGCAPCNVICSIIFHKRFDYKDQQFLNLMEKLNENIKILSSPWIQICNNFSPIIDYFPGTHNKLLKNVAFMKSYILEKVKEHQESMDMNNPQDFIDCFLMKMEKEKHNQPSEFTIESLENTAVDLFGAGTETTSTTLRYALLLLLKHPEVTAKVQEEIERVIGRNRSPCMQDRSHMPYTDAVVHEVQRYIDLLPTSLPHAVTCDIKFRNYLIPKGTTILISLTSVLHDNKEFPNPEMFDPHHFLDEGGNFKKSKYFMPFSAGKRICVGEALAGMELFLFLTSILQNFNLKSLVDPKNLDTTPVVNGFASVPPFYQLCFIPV

[16] = molecular target: CYP 1A2 (Homo sapiens, UniProt P05177); conditions: cited from earlier work
Sequence of CYP 1A2 (P05177 whole entry): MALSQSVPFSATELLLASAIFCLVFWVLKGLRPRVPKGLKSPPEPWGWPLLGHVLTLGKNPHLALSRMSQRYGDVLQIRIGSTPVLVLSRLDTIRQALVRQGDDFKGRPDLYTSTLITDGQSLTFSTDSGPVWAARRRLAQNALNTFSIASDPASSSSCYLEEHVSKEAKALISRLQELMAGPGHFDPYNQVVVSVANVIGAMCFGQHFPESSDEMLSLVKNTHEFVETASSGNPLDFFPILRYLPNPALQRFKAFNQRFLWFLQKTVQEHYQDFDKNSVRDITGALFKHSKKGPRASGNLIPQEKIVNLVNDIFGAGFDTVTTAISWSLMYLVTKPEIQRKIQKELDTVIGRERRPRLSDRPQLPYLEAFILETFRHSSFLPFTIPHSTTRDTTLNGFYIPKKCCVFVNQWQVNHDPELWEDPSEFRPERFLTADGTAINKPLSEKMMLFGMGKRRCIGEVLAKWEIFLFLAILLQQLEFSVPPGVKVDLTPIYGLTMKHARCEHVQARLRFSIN

For `Cc1c(CN2CCC3(CC2)CN(c2ncnc4sc(CC(F)(F)F)cc24)C3)ccc2c1cc(C#N)n2CC(N)=O` [BAY-155], which “fold improved proliferation inhibition vs MI-503” value [1] is on record?
The value was 6.3 fold.

And the “CD11b and MNDA gene expression” value [2]?
The value was “up-regulation”.

And the MEIS1 gene expression [2]?
The MEIS1 gene expression was “stronger expression down-regulation”.

What about the menin protein levels [3] of the same compound?
Its menin protein levels is “reduce menin protein levels in a time- and concentration-dependent manner”.

And the “number of differentially expressed genes” value [4]?
Its value is 665 genes.

What about the “number of differentially expressed genes” value [5] of the same compound?
The value was 346 genes.

What about the “GSEA of estradiol (E2) up- and down-regulated gene sets” value ([6]; MCF7) of the same compound?
The value was “slight reverse regulation”.

And the “E2 down-regulated genes significantly changed” value ([6]; MCF7, 5 µM, E2)?
The value was 13 genes.

And the “E2 up-regulated genes significantly changed” value ([6]; MCF7, 5 µM, E2)?
The value was 26 genes.

And the body weight ([7]; 180 mg/kg 2QD p.o.)?
The body weight was “no evidence of body weight loss”.

What about the “tumor volume T/C” value ([7]; 180 mg/kg 2QD p.o., regression) of the same compound?
The value was under 0.02.

What about the tumor weights ([7]; p.o.) of the same compound?
The tumor weights was “clear concentration-dependent trend for reduced tumor weights”.

What about the “tumor volume T/C” value [8] of the same compound?
The value was 0.67.

And the tumor weight [8]?
Its tumor weight is “significant decrease in tumor weight”.

What about the “tumor volume and weight (anti-growth effects)” value [9] of the same compound?
The value was “no significant anti-growth effects”.

And the “MEIS1 expression ex vivo” value [10]?
The value was “concentration-dependent and significant down-regulation”.

And the “MNDA and CD11b expression ex vivo” value [10]?
The value was “up-regulation”.

What about the “FKBP5 and TMPRSS2 expression ex vivo” value [11] of the same compound?
The value was “no significant changes”.

What about the “in vivo CL blood Rat” value [12] of the same compound?
The value was 18.3 mL/min/kg.

What about the “in vivo F Rat” value [12] of the same compound?
Its value is 15.3%.

And the IC50 [13]?
The IC50 was over 20 µM.

And the IC50 [14]?
Its IC50 is over 20 µM.

What about the IC50 [15] of the same compound?
Its IC50 is over 20 µM.

And the IC50 [16]?
The IC50 was over 20 µM.
